Assays:
[1] = test system: early-stage sleeping sickness; conditions: man and animals; cited from earlier work
[2] = test system: T. brucei; conditions: cited from earlier work
[3] = test system: decarboxylated S-adenosylmethionine (DSAM) and S-adenosylmethionine (SAM); conditions: cited from earlier work
[4] = test system: L1210 leukemia; assay: Survival time of mice bearing the L1210 leukemia; assay type: in vivo
Protocol: The tumor-inhibitory properties of several compounds, e.g., 1,2-bis(methylsulfonyl)-1-methylhydrazine, 1-methyl-1,2,2-tris(methylsulfonyl)hydrazine, 1,2-bis(methylsulfonyl)-1,2-dimethylhydrazine and 1-(2-chloroethyl)-1,2,2-tris(methylsulfonyl)hydrazine were determined by measuring the effects of these agents on the survival time of mice bearing the L1210 leukemia as described by K. Shyam, L. A. Cosby, and A. C. Sartorelli, J. Med. Chem., 28, 525-527 (1985).
^a Administered once daily for 6 consecutive days, beginning 24 hours
after tumor transplantation with 5-10 animals being used per group.
^b Average change in body weight from onset to termination of therapy
(§1) ^c % T/C = average survival time of treated/control animals ×

[5] = test system: P388 leukemia; assay: % T/C and 60-day cures vs. P388 leukemia; assay type: in vivo, mice; conditions: 60 mg/kg/day
Protocol: as §1
^d % T/C vs. P388 leukemia = 218 (80% 60day cures) at 60 mg/kg/day

[6] = Lethality in normal mice; assay type: in vivo
Protocol: A single intraperitoneal dose of 1.2 g/kg or six daily intraperitoneal doses of 200 mg/kg of MeSO2 N(CH2 CH2 Cl)N(SO2 Me)2 produced no lethality in normal mice. Thus, the relatively great efficacy of this compound against the L1210 and P-388 leukemias and its relative lack of toxicity makes it an agent of significant promise.

[7] = test system: T. rhodesiense (Y Tat 1.1); assay: Survival time of CD-1 mice infected with T. rhodesiense (trypanocidal activity); assay type: in vivo, T. rhodesiense (Y Tat 1.1); CD-1 mice; conditions: single ip dose 0.2 mmol/kg in 0.05 ml of DMSO
Protocol: The trypanocidal properties of several methylating agents including MeSO2 N(Me)N(SO2 Me)2 and MeSO2 N(Me)N(Me)SO2 Me were determined by measuring their effects on the survival time of CD-1 mice infected with T. rhodesiense (Y Tat 1.1), a pleimorphic strain that produces a non-relapsing disease in mice. The level of parasites in the bloodstream and body fluids increases by approximately 10-fold per day and the animals die when the parasite burden exceeds 1 to 2×10^9 cells/ml. Infection with a single viable parasite will kill a mouse in approximately 9 to 10 days.
Mice were infected ip with approximately 10^6 trypanosomes/mouse in phosphate buffered saline containing glucose. This level of parasites produces death in 4 days post-infection. These mice were treated (ip) with a single dose of drug dissolved in the appropriate vehicle 3 days after infection, when the parasitemia was 1 to 3×10^8 cells/ml of blood and the mice, if untreated, would survive for only 24 additional hours. The number of days the mice survived beyond that of the untreated controls was used as a measure of trypanocidal activity. The level of parasitemia in treated mice was measured at regular intervals to distinguish between parasite-related and drug toxicity-related deaths. No toxic deaths were observed. Mice that survived for 30 days without detectable parasitemias were considered cured. The effects of a single dose of various methylating agents on the survival time of trypanosome-bearing mice are summarized in Table II.
^a Drug that was administered was dissolved in 0.5 ml of phosphate
buffered saline containing glucose.
^b Drug that was administered was dissolved in 0.05 ml of DMSO.

[8] = Methanol generation in vitro (spontaneous breakdown to generate reactive methyl groups); assay type: physicochemical; conditions: aqueous buffered (pH 7.6) solution
Protocol: (§2) The reaction of 1,2-bis(sulfonyl)-1-methylhydrazine with water at pH 7.4-7.6 at 37° C. can be followed by proton release and/or methanol generation. Methanol generation can be assayed using alcohol oxidase and measuring the resultant O2 consumption using a Gilson oxygraph. This assay can be calibrated using methanol standards. The reaction of 1,2-bis(sulfonyl)-1-methylhydrazine with water is relatively fast [a 50 μM solution of 1,2-bis(methylsulfonyl)-1-methylhydrazine decomposes at an initial rate of 12-15% per minute in phosphate buffered saline (pH 7.6) at 37° C.] compared to the hydroylsis of 1,2,2-tris(methylsulfonyl)-1-methylhydrazine. RSO2 N=NMe may also decompose by a free radical mechanism to a smaller extent and methylate by the generation of methyl radicals.
Methanol was produced by these agents in aqueous solutions free from strong competing nucleophiles. Formation of this alcohol was used as a measure of the rate of spontaneous breakdown of these compounds to generate reactive methyl groups. […] These findings provide strong evidence that methylation is essential for the observed biological activity of these compounds.

[9] = Hydrolysis / decomposition in aqueous solution; assay type: physicochemical
Protocol: In the case of 1,2,2-tris(methylsulfonyl)-1-methylhydrazine, this reaction occurs slowly. A 50 μM solution of this compound hydrolyzes at an initial rate of 1% per minute in phosphate buffered saline (pH 7.6) at 37° C.
Hydrolysis is expected to occur preferentially at N-2 to generate the 1,2-bis(sulfonyl)-1-methylhydrazine. The sulfonic acid and 1,2-bis(sulfonyl)-1-methylhydrazine that are generated are both ionized under these conditions. The release of protons can be used to follow the decomposition of these and related compounds. The release of protons can be assayed by following the decrease in absorbance at 560 nm of a weakly buffered (1 mM potassium phosphate) phenol red (21 mg/l) solution; initial pH 7.6 at 37° C. The assay can be calibrated using HCl standards.
as §2

[10] = test system: trypanosomes; assay: Loss of antitrypanosomal activity upon aging of aqueous buffered solutions; assay type: in vivo; conditions: aqueous buffered (pH 7.6)
[11] = test system: T. gambiense; assay: Activity against T. gambiense
Protocol: (§3) A representative agent, 1,2-bis(methylsulfonyl)-1-methylhydrazine, was also tested against several other trypanosoma species.

[12] = test system: I. brucei brucei; assay: Activity against brucei brucei
Protocol: as §3

[13] = test system: T. evansi; assay: Activity against T. evansi
Protocol: as §3

[14] = test system: T. equiperdum; assay: Activity against T. equiperdum
Protocol: as §3

[15] = test system: T. rhodesiense; assay: Oral trypanocidal activity (preliminary); assay type: in vivo, T. rhodesiense; mice; conditions: aqueous solutions, preliminary results
Description: Orally active trypanocidal agents are desirable since, in areas where trypanosomiasis is endemic, other routes of drug administration frequently present problems.

[16] = late-stage sleeping sickness; cited from earlier work
[17] = L1210, at optimum effective daily dose, once daily × 6 days

## NCCC[C@](N)(C(=O)O)C(F)F [DFMO, alpha-difluoromethylornithine]
[1]
  Efficacy against early-stage sleeping sickness: effective against early-stage sleeping sickness
[2]
  Induction of differentiation in T. brucei: induce differentiation in T. brucei
[3]
  increase in decarboxylated S-adenosylmethionine (DSAM) and S-adenosylmethionine (SAM): 1000 fold

## CS(=O)(=O)N(CCCl)N(S(C)(=O)=O)S(C)(=O)=O [MeSO2 N(CH2 CH2 Cl)N(SO2 Me)2, 1-(2-chloroethyl)-1,2,2-tris(methylsulfonyl)hydrazine]
[4]; 40 and 60 mg/kg per day×6
  60-day "cures" of the L1210 leukemia: 60-day "cures" of the L1210 leukemia
[4]; [17]
  60-day cures, %: 100%
[4]; mice bearing L1210, at optimum effective daily dose
  AvΔ Wt, % (average change in body weight from onset to termination of therapy): -7.2%
[4]; mouse, in vivo
  Activity against the L1210 leukemia (in words): exceedingly active
[5]
  60-day cures vs. P388 leukemia: 80%
  % T/C vs. P388 leukemia: 218%
[6]; single intraperitoneal dose of 1.2 g/kg
  Lethality in normal mice: no lethality
[6]; six daily intraperitoneal doses of 200 mg/kg
  Lethality in normal mice: no lethality

## CN(NS(C)(=O)=O)S(C)(=O)=O [MeSO2 N(Me)NHSO2 Me, 1,2-bis(methylsulfonyl)-1-methylhydrazine]
[4]; [17]
  60-day cures, %: 0%
  % T/C (average survival time of treated/control animals × 100): 180%
[4]; mouse, in vivo
  AvΔ Wt, % (average change in body weight from onset to termination of therapy): -10.7%
[7]
  Mean Extension of Life: 11.8 days
[8]
  Time within which decomposition was complete (no further methanol generated): ≤ 15 min
[9]; 50 μM solution, phosphate buffered saline (pH 7.6), 37° C.
  Initial rate of hydrolysis / decomposition: 12-15 % per minute
[9]; acidified solutions
  Decomposition in aqueous solutions: can be inhibited by dosing in acidified solutions
[10]; after 0 minutes of aging
  antitrypanosomal activity lost on aging: 0%
[10]; after 1 minute of aging
  antitrypanosomal activity lost on aging: 21%
[10]; after 5 minutes of aging
  antitrypanosomal activity lost on aging: 73%
[10]; after 15 minutes of aging
  antitrypanosomal activity lost on aging: 97%
[11]
  Activity against T. gambiense: Activity has been demonstrated
[12]
  Activity against I. brucei brucei: Activity has been demonstrated
[13]
  Activity against T. evansi: Activity has been demonstrated
[14]
  Activity against T. equiperdum: Activity has been demonstrated
[15]
  Trypanocidal activity on oral administration compared with Table II: comparable activity to that reported in Table II

## Nc1nc(N)nc(Nc2ccc([As]3SCC(CO)S3)cc2)n1 (stereo not shown) [melarsoprol]
[16]
  patients die due to drug toxicity: up to 5%
